Target: T1, α4β1 integrin (Homo sapiens, UniProt P05556+P13612)
T1 construct: Ramos cells fluorescently labeled with calcein; endogenous in cells; host or cells: Ramos cells
Assay: Inhibition of adhesion of calcein-labeled Ramos cells to CS1 (fibronectin) peptide-conjugated ovalbumin
Type: cell-based
Settings: Table 1; for inhibition at 100 µM: Ramos, compound at a concentration of 100 μM, read-out: % A (percent inhibition of cell adhesion); for IC50: dose required to give 50% inhibition, Ramos cell adhesion to CS1-ovalbumin, 30 minutes at 37° C
Method: The ability of compounds of the present invention to inhibit binding is described in detail hereinafter in the Examples by a procedure in which a 26-amino acid peptide containing the CS1 sequence of fibroncctin with an N-terminal Cys was coupled to maleimide activated ovalbumin. Ovalbumin and CS1 conjugated ovalbumin were coated onto 96-well polystyrene plates at 5 μg/ml in TBS (50 mM Tris, pH 7.5; 150 mM NaCl) at 4° C. for 16 hours. The plates were washed three times with TBS and blocked with TBS containing 3% BSA at room temperature for 4 hours. Blocked plates were washed three times in binding buffer (TBS; 1 mM MgCl2; 1 mM CaCl2; 1 mM MnCl2) prior to assay. Ramos cells fluorescently labeled with calcein AMC-3099 were resuspended in binding buffer (10^7 cells/ml) and diluted 1:2 with same buffer with or without compound. The cells were added immediately to the wells (2.5×10^5 cells/well) and incubated for 30 minutes at 37° C. Following three washes with binding buffer, adherent cells were lysed and quantitated using a fluorometer.
IC50 is defined as the dose required to give 50% inhibition. The lower the IC50 value and the greater the percentage of inhibition, the more efficient the compound is at prevention of cell adhesion. A stands for inhibition in Table 1, and the percent inhibition indicates the inhibition of cell adhesion when compound is included in the assay at a concentration of 100 μM.

T1 sequence (P13612 34-1032): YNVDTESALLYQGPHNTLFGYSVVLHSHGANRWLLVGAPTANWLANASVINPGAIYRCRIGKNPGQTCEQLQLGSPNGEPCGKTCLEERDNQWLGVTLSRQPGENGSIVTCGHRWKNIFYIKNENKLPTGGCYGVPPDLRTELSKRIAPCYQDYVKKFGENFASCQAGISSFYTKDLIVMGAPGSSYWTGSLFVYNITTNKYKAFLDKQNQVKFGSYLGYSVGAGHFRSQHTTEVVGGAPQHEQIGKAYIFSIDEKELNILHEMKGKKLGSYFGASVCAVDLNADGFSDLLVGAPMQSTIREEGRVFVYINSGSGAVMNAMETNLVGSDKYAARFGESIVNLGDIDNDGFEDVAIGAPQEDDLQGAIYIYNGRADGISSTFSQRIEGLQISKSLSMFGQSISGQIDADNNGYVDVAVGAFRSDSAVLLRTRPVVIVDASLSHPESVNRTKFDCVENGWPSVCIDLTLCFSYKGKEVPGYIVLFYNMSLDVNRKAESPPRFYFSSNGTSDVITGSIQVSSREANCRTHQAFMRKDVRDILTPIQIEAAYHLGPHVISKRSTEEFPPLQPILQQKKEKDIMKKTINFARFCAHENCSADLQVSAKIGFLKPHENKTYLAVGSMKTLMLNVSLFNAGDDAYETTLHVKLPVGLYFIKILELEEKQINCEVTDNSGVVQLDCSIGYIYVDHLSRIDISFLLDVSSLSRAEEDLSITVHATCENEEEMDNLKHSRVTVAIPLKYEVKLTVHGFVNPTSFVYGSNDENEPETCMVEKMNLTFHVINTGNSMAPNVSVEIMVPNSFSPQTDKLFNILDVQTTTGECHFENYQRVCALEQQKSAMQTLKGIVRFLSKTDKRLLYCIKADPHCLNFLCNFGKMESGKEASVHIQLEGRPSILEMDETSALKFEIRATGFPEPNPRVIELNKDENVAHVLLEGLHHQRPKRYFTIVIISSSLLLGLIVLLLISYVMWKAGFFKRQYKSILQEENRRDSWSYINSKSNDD
T1 sequence (P05556 21-798): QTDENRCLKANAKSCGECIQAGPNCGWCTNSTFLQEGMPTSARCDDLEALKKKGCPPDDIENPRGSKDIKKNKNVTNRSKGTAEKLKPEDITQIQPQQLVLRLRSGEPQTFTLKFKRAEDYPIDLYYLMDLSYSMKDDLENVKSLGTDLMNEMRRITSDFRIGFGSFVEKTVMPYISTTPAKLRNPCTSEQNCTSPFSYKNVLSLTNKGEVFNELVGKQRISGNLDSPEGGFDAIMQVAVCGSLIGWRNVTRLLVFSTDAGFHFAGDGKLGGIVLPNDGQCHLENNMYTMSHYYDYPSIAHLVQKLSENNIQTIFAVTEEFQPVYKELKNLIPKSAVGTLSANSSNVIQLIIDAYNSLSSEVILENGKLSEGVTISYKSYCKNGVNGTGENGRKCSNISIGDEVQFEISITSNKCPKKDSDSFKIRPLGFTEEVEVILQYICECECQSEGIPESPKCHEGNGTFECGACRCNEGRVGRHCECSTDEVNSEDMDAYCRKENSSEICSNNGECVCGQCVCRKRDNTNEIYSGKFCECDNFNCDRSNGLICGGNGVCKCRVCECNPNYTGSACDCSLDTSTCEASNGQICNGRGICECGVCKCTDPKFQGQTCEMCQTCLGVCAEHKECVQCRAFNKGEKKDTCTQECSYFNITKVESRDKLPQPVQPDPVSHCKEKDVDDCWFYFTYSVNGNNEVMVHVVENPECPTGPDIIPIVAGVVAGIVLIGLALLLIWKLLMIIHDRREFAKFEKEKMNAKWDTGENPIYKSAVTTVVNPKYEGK

Structure (SMILES)	inhibition at 100 µM [%]	IC50 [nM]
CSCC[C@@H](CSc1ccc(NC(C)=O)cc1)NC(=O)N[C@@H](CC(=O)O)c1ccc2c(c1)OCO2 [(3S)-3-[({[(1S)-1-({[4-(acetylamino)phenyl]sulfanyl}methyl)-3-(methylsulfanyl)propyl]amino}carbonyl)amino]-3-(1,3-benzodioxol-5-yl)propanoic acid]	100	3000
CCCSC[C@@H](Cc1ccccc1)NC(=O)N[C@@H](CC(=O)O)c1ccc2c(c1)OCO2 [(3S)-3-(1,3-benzodioxol-5-yl)-3-[({[(1R)-1-benzyl-2-(propylthio)ethyl]amino}carbonyl)amino]propanoic acid]	100	2000
COc1ccc(CNC(=O)[C@H](CC(C)C)NC(=O)NC(CC(=O)O)c2ccc3c(c2)OCO3)cc1 (stereo partly drawn) [3-(1,3-benzodioxol-5-yl)-3-({[((1S)-1-{[(4-methoxybenzyl)amino]carbonyl}-3-methylbutyl)amino]carbonyl}amino)propanoic acid]	100	500
O=C(O)C[C@H](NC(=O)O[C@H](COCc1ccccc1)CSCc1ccccc1)c1ccc2c(c1)OCO2 [(3S)-3-(1,3-benzodioxol-5-yl)-3-{[({(1R)-2-(benzyloxy)-1-[(benzylthio)methyl]ethyl}oxy)carbonyl]amino}propanoic acid]	100	10000
CCCC[C@@H](CSc1cccc(NCc2ccccc2C)c1)OC(=O)N[C@@H](CC(=O)O)c1ccc2c(c1)OCO2 [Compound 15, (3S)-3-(1,3-benzodioxol-5-yl)-3-{[({(1S)-1-[({3-[(2-methylbenzyl)amino]phenyl}thio)methyl]pentyl}oxy)carbonyl]amino}propanoic acid]	100	25000
CC(C)[C@@H](CSc1ccccc1)NC(=O)N[C@@H](CC(=O)O)c1ccc2c(c1)OCO2 [(3S)-3-(1,3-benzodioxol-5-yl)-3-(((((1S)-2-methyl-1-((phenylsulfanyl)methyl)propyl)amino)carbonyl)amino)propanoic acid]	100	2500
C[C@@H](CSc1ccccc1)NC(=O)N[C@@H](CC(=O)O)c1ccc2c(c1)OCO2 [(3S)-3-(1,3-benzodioxol-5-yl)-3-[({[(1S)-1-methyl-2-(phenylsulfanyl)ethyl]amino}carbonyl)amino]propanoic acid]	100	3000
O=C(O)C[C@H](NC(=O)NCCSc1ccccc1)c1ccc2c(c1)OCO2 [(3S)-3-(1,3-benzodioxol-5-yl)-3-[({[2-(phenylsulfanyl)ethyl]amino}carbonyl)amino]propanoic acid]	100	6000
COc1ccc(SC[C@H](CCSC)NC(=O)N[C@@H](CC(=O)O)c2ccc3c(c2)OCO3)cc1 [(3S)-3-(1,3-benzodioxol-5-yl)-3-[({[(1S)-1-{[(4-methoxyphenyl)sulfanyl]methyl}-3-(methylsulfanyl)propyl]amino}carbonyl)amino]propanoic acid]	100	7000
CCCC[C@@H](CSc1ccc(NC(=O)Nc2ccccc2C)cc1)OC(=O)N[C@@H](CC(=O)O)c1ccc2c(c1)OCO2 [(3S)-3-(1,3-benzodioxol-5-yl)-3-{[({(1S)-1-[({4-[(2-toluidinocarbonyl)amino]phenyl}thio)methyl]pentyl}oxy)carbonyl]amino}propanoic acid]	100	300
COC(=O)NCCCC[C@@H](CSc1ccccc1)NC(=O)N[C@@H](CC(=O)O)c1ccc2c(c1)OCO2 [(9S,13S)-13-(1,3-benzodioxol-5-yl)-3,11-dioxo-9-[(phenylsulfanyl)methyl]-2-oxa-4,10,12-triazapentadecan-15-oic acid]	100	400
Cc1ccccc1NC(=O)Nc1ccc(CNC(=O)[C@H](CCCCNC(=O)OCc2ccccc2)NC(=O)N[C@@H](CC(=O)O)c2ccc3c(c2)OCO3)cc1 [(9S,13S)-13-(1,3-benzodioxol-5-yl)-3,11-dioxo-1-phenyl-9-[({4-[(2-toluidinocarbonyl)amino]benzyl}amino)carbonyl]-2-oxa-4,10,12-triazapentadecan-15-oic acid]	100	0.3
O=C(O)C[C@H](NC(=O)N[C@@H](CSCc1ccccc1)CSc1ccccc1)c1ccc2c(c1)OCO2 [(3S)-3-(1,3-benzodioxol-5-yl)-3-{[({(1S)-2-(benzylsulfanyl)-1-[(phenylsulfanyl)methyl]ethyl}amino)carbonyl]amino}propanoic acid]	100	20
O=C(O)C[C@H](NC(=O)NC(CSc1ccccc1)CSc1ccccc1)c1ccc2c(c1)OCO2 [(3S)-3-(1,3-benzodioxol-5-yl)-3-{[({2-(phenylsulfanyl)-1-[(phenylsulfanyl)methyl]ethyl}amino)carbonyl]amino}propanoic acid]	99	1500
CCCC[C@@H](COCc1cccs1)NC(=O)N[C@@H](CC(=O)O)c1ccc2c(c1)OCO2 [Compound 22, (3S)-3-(1,3-benzodioxol-5-yl)-3-{[({(1S)-1-[(2-thienylmethoxy)methyl]pentyl}amino)carbonyl]amino}propanoic acid]	100	1500
CCSC[C@@H](CSc1ccccc1)NC(=O)N[C@@H](CC(=O)O)c1ccc2c(c1)OCO2 [(3S)-3-(1,3-benzodioxol-5-yl)-3-{[({(1S)-2-(ethylsulfanyl)-1-[(phenylsulfanyl)methyl]ethyl}amino)carbonyl]amino}propanoic acid]	100	50
O=C(O)C[C@H](NC(=O)N[C@@H](CC(=O)O)c1ccc2c(c1)OCO2)c1ccc2c(c1)OCO2 [N,N'-bis[(1S)-1-(1,3-benzodioxol-5-yl)-2-carboxyethyl]urea]	99	7000
O=C(O)C[C@H](NC(=O)N[C@@H](CCCCNC(=O)OCc1ccccc1)C(=O)NCc1cccs1)c1ccc2c(c1)OCO2 [Compound 27, (9S,13S)-13-(1,3-benzodioxol-5-yl)-3,11-dioxo-1-phenyl-9-{[(2-thienylmethyl)amino]carbonyl}-2-oxa-4,10,12-triazapentadecan-15-oic acid]	100	200
O=C(O)C[C@H](NC(=O)O[C@@H](COCCc1ccccc1)CSc1ccccc1)c1ccc2c(c1)OCO2 [(3S)-3-(1,3-benzodioxol-5-yl)-3-{[({(1S)-2-(phenethyloxy)-1-[(phenylthio)methyl]ethyl}oxy)carbonyl]amino}propanoic acid]	100	4000
O=C(O)C[C@H](NC(=O)N[C@H](CSc1ccccc1)CS(=O)(=O)Cc1ccccc1)c1ccc2c(c1)OCO2 [(3S)-3-(1,3-benzodioxol-5-yl)-3-(((((1R)-2-(benzylsulfonyl)-1-((phenylsulfanyl)methyl)ethyl)amino)carbonyl)amino)propanoic acid]	100	1000
Cc1ccc(S(=O)(=O)NC[C@@H](CSc2ccccc2)NC(=O)N[C@@H](CC(=O)O)c2ccc3c(c2)OCO3)cc1 [(3S)-3-(1,3-benzodioxol-5-yl)-3-{[({(1S)-2-{[(4-methylphenyl)sulfonyl]amino}-1-[(phenylthio)methyl]ethyl}amino)carbonyl]amino}propanoic acid]	98	10000
COC(=O)NCCCC[C@H](NC(=O)N[C@@H](CC(=O)O)c1ccc2c(c1)OCO2)C(=O)NCC1CCNCC1 [(9S,13S)-13-(1,3-benzodioxol-5-yl)-3,11-dioxo-9-{[(4-piperidinylmethyl)amino]carbonyl}-2-oxa-4,10,12-triazapentadecan-15-oic acid]	97	5000
CC(C)[C@@H](CSc1ccccc1)NC(=O)NC(CC(=O)O)c1ccc2c(c1)OCO2 (stereo partly drawn) [3-(1,3-benzodioxol-5-yl)-3-{[({(1S)-2-methyl-1-[(phenylsulfanyl)methyl]propyl}amino)carbonyl]amino}propanoic acid]	99	5000
CC(C)[C@@H](CSc1ccccc1)NC(=O)N[C@H](CC(=O)O)c1ccc2c(c1)OCO2 [(3R)-3-(1,3-benzodioxol-5-yl)-3-{[({(1S)-2-methyl-1-[(phenylsulfanyl)methyl]propyl}amino)carbonyl]amino}propanoic acid]	83	35000
CSCC[C@@H](CSc1cccc(N)c1)NC(=O)N[C@@H](CC(=O)O)c1ccc2c(c1)OCO2 [(3S)-3-[({[(1S)-1-{[(3-aminophenyl)thio]methyl}-3-(methylthio)propyl]amino}carbonyl)amino]-3-(1,3-benzodioxol-5-yl)propanoic acid]	100	300
O=C(O)CSC[C@@H](CSc1ccccc1)NC(=O)N[C@@H](CC(=O)O)c1ccc2c(c1)OCO2 [(3S)-3-(1,3-benzodioxol-5-yl)-3-{[({(1S)-2-[(carboxymethyl)sulfanyl]-1-[(phenylsulfanyl)methyl]ethyl}amino)carbonyl]amino}propanoic acid]	100	2000
